Tests used:
[1] = tested on: SriC12; experiment: Substrate testing with lyophilised material containing SriC12 (Example 5, method of Example 4A); format: biochemical, Streptomyces rimosus NRRL 2234; conditions: 0.1 mg/ml substrate
Procedure: (§1) Lyophilised material of recombinant P450, ferredoxin and ferredoxin reductase proteins was made as described in Example 3 and reconstituted in high purity water to the original volume. Biocatalysis was performed shaking at 27° C. in the following conditions: 100 mM potassium phosphate pH 8.0, 5 mM MgCl2 (both present in the reconstituted enzyme preparation) and 0.1 mg/ml substrate compound such as carbamazepine, bosentan, diclofenac, meloxicam, tivantinib or ambroxide.
(§2) Concentrations of P450, ferredoxin and ferredoxin reductase were as extracted (Example 3). Reactions were initiated by addition of 10× stock of cofactor mixture (50 mM G6P, 10 mM NADP, 10 UN/ml G6PDH) to provide a final volume of e.g., 10 μL to 90 μL for 100 μL total reaction volumes. After 16-20 hours, reactions were extracted with an equal volume of acetonitrile, centrifuged to remove precipitated proteins and conversion assessed by UPLC-MS analysis.
(§3) Other cytochrome P450 enzymes were expressed as described above, and their activities tested against the same substrates as P450SeuC10 using the methods described in Example 4. The other P450s tested were: P450AluC09 from Amycolatopsis lurida NRRL 2430 (SEQ ID NO: 13, see WO 2018/091885); SriC12 from Streptomyces rimosus NRRL 2234 (SEQ ID NO: 14, see WO 2020/109776); SriC20 from Streptomyces rimosus NRRL 2234 (SEQ ID NO: 15, see WO 2020/109776); SriC22 from Streptomyces rimosus NRRL 2234 (SEQ ID NO: 16, see WO 2020/109776); and CYP107L from Streptomyces platensis DSM 40041 (SEQ ID NO: 17, see Worsch et al., Biotechnology and Bioengineering 115: 2156-2166, 2018).

[2] = tested on: P450SeuC10; experiment: Oxidase activity/spectrum testing with lyophilised material containing P450SeuC10, ferredoxinSeuF08 and ferredoxin reductaseSCF15A (Example 4A); format: biochemical, Streptomyces eurythermus NRRL 2539; conditions: for Overall % conversion to oxidised products: SeuC10, lyophilised material, 0.1 mg/ml substrate, 27° C., 16-20 hours, pH 8.0, UPLC-MS; for inferred yield of oxidised product (UPLC-MS): product formed from parent substrate dosed at 100 mg/L, lyophilised material, 100 μL screening scale
Procedure: Suspended cell pellets were provided as described in Example 2, containing recombinant P450, ferredoxin and ferredoxin reductase in 100 mM potassium phosphate buffer pH 8.0, 5 mM MgCl2, 5 mM TCEP, and 1 mM PMSF in a ratio of 3.0 ml of buffer per 1 g of cells. Lysed cells were produced by high pressure disruption using three cycles of 30 kpsi. Lysed material was centrifuged at 38,000×g for 40 minutes (4° C.) and the supernatant was sterilized by passing through a 0.2 micron filter to provide the cell-free enzyme preparation containing recombinant P450, ferredoxin and ferredoxin reductase.
as §1, §2
UPLC data were obtained as follows:
Column: Acquity UPLC BEH Shield RP18 1.7 μm 2.1 mm i.d. 50 mm length
Solvents: H2O, B: Acetonitrile, both with 0.1% Formic acid
Detector: Waters Acquity UPLC PDA (UV-Vis detection) and Waters Acquity UPLC QDA (MS)

[3] = tested on: SriC20; experiment: Substrate testing with lyophilised material containing SriC20 (Example 5, method of Example 4A); format: biochemical, Streptomyces rimosus NRRL 2234; conditions: 0.1 mg/ml substrate
Procedure: as §1, §2, §3

[4] = tested on: P450AluC09; experiment: Substrate testing with lyophilised material containing P450AluC09 (Example 5, method of Example 4A); format: biochemical, Amycolatopsis lurida NRRL 2430; conditions: AluC09, lyophilised material, 0.1 mg/ml substrate
Procedure: as §1, §2, §3

[5] = tested on: SriC22; experiment: Substrate testing with lyophilised material containing SriC22 (Example 5, method of Example 4A); format: biochemical, Streptomyces rimosus NRRL 2234; conditions: 0.1 mg/ml substrate
Procedure: as §1, §2, §3

[6] = tested on: P450AluC09; experiment: Substrate testing with whole cells containing P450AluC09 (Example 5, method of Example 4B); format: cell-based, Amycolatopsis lurida NRRL 2430; conditions: AluC09, whole cells, 0.1 mg/ml substrate
Procedure: Cell pellets were provided as in Example 2. The cell pellets were defrosted, washed with 0.85% NaCl buffer and centrifuged at 4,000 RCF, 30 minutes at 4° C. The supernatant was discarded and the pellet was flash frozen in liquid nitrogen. The pellet was allowed to defrost again and resuspended in 40 mL of buffer containing 50 mM potassium phosphate, pH 7.4, 5 mM MgCl2 and 100 mM glucose. Biocatalysis was performed shaking at 27° C. with 0.1 mg/ml substrate compound such as carbamazepine, bosentan, diclofenac, meloxicam, tivantinib, ambroxide or others as shown in Table 2. Reactions were stopped and analysed as in Example 4.
as §3

[7] = tested on: P450SeuC10; experiment: Whole-cell biotransformation in E. coli expressing P450SeuC10, ferredoxinSeuF08 and ferredoxin reductaseSCF15A (Example 4B); format: cell-based, Streptomyces eurythermus NRRL 2539; conditions: for Overall % conversion to oxidised products: SeuC10, E. coli whole cells, 0.1 mg/ml substrate, 27° C., pH 7.4; for inferred yield of oxidised product (UPLC-MS): product formed from parent substrate dosed at 100 mg/L, E. coli whole cells, 100 μL screening scale
Excerpt: Cell pellets were provided as in Example 2. […] Reactions were stopped and analysed as in Example 4.

| Overall % conversion to oxidised products [2] | SMILES | Overall % conversion to oxidised products [1] | Overall % conversion to oxidised products [3] | Overall % conversion to oxidised products [4] | Overall % conversion to oxidised products [5] | Overall % conversion to oxidised products [6] | Overall % conversion to oxidised products [7] | further results |
| --- | --- | --- | --- | --- | --- | --- | --- | --- |
| 49.2% | NC(=O)N1c2ccccc2C=Cc2ccccc21 [Carbamazepine] | 3.2% | 0% | 0% | 0% | – | – | – |
| 21% | CCCCNC(=O)NS(=O)(=O)c1ccc(C)cc1 [Tolbutamide] | 34% | 0% | 0% | 0% | – | – | – |
| – | Fc1ccc(C(OCCN2CCN(CCCc3ccccc3)CC2)c2ccc(F)cc2)cc1 [Vanoxerine] | – | – | – | – | 0% | 26.5% | – |
| – | O=C(O)Cc1ccccc1Nc1c(Cl)cc(O)cc1Cl [4′-hydroxydiclofenac] | – | – | – | – | – | – | inferred yield of oxidised product (UPLC-MS) [7]: 73.4% |
| – | COc1ccccc1Oc1c(NS(=O)(=O)c2ccc(C(C)(C)C)cc2)nc(-c2ncccn2)nc1OCCO [Bosentan] | – | – | – | – | 100% | 87.1% | – |
| 72.8% | CC1(C)CCC[C@]2(C)[C@H]3CCO[C@]3(C)CC[C@@H]12 [Ambroxide] | 0% | 0% | 0% | 0% | – | – | – |
| – | O=C(O)Cc1cc(O)ccc1Nc1c(Cl)cccc1Cl [5-hydroxydiclofenac] | – | – | – | – | – | – | inferred yield of oxidised product (UPLC-MS) [7]: 19.4% |
| 98.3% | O=C(O)Cc1ccccc1Nc1c(Cl)cccc1Cl [Diclofenac] | 33.9% | 0% | 89.9% | 0.9% | – | – | – |
| – | N#CC[C@H](C1CCCC1)n1cc(-c2ncnc3[nH]ccc23)cn1 [Ruxolitinib] | – | – | – | – | 34.3% | 38.6% | – |
| – | CN1C(C(=O)Nc2ncc(CO)s2)=C(O)c2ccccc2S1(=O)=O [5′-hydroxymethylmeloxicam] | – | – | – | – | – | – | inferred yield of oxidised product (UPLC-MS) [2]: 28.4% |
| – | CN1C(C(=O)Nc2ncc(C(=O)O)s2)=C(O)c2ccccc2S1(=O)=O [5′-carboxylmeloxicam] | – | – | – | – | – | – | inferred yield of oxidised product (UPLC-MS) [2]: 5.3% |
| – | CCC[C@H](N[C@@H](C)C(=O)N1[C@H](C(=O)O)C[C@@H]2CCCC[C@@H]21)C(=O)OCC [Perindopril] | – | – | – | – | 0% | 14.4% | – |
| – | CC(C)(C)c1ccc(S(=O)(=O)Nc2nc(-c3ncccn3)nc(OCCO)c2Oc2ccccc2O)cc1 [O-desmethylbosentan] | – | – | – | – | – | – | inferred yield of oxidised product (UPLC-MS) [7]: 3.4% |
| – | CC(C)c1nc(CN(C)C(=O)N[C@H](C(=O)N[C@@H](Cc2ccccc2)C[C@H](O)[C@H](Cc2ccccc2)NC(=O)OCc2cncs2)C(C)C)cs1 [Ritonavir] | – | – | – | – | 86.3% | 21.6% | – |
| – | CC(C)(C)[C@H]1CC[C@H](CC2=C(O)C(=O)c3ccccc3C2=O)CC1 [Buparvaquone] | – | – | – | – | 48.8% | 23.4% | – |
| – | NC(=O)N1c2ccccc2C2OC2c2ccccc21 (stereo not drawn) [carbamazepine-10,11-epoxide] | – | – | – | – | – | – | inferred yield of oxidised product (UPLC-MS) [2]: 49% |
| – | COc1ccccc1Oc1c(NS(=O)(=O)c2ccc(C(C)(C)CO)cc2)nc(-c2ncccn2)nc1OCCO [hydroxy-bosentan] | – | – | – | – | – | – | inferred yield of oxidised product (UPLC-MS) [7]: 81% |
| – | Cc1ccc(-n2nc(C(C)(C)C)cc2NC(=O)Nc2ccc(OCCN3CCOCC3)c3ccccc23)cc1 [BIRB796] | – | – | – | – | 5.2% | 19.3% | – |
| 70.2% | CCCCCCCCCCCCCCCC(=O)O [Palmitic acid] | 35.5% | 0% | 28.5% | 0% | – | – | – |

| SMILES | Overall % conversion to oxidised products [2] | Overall % conversion to oxidised products [1] | Overall % conversion to oxidised products [3] | Overall % conversion to oxidised products [4] | Overall % conversion to oxidised products [5] | Overall % conversion to oxidised products [6] | Overall % conversion to oxidised products [7] | further results |
| --- | --- | --- | --- | --- | --- | --- | --- | --- |
| C/C(=C\c1csc(C)n1)[C@@H]1C[C@@H]2O[C@]2(C)CCC[C@H](C)[C@H](O)[C@@H](C)C(=O)C(C)(C)[C@@H](O)CC(=O)O1 [Epothilone B] | 35.1% | 2% | 0% | 46% | 0% | – | – | – |

— US12410411B2, “Biocatalytic techniques” (HYPHA DISCOVERY LIMITED, priority 2019, dated 2025)
